The results in this text go back to patent US7998978B2 (Pfizer Inc., priority 2006, dated 2011).

For this assay, the target named is T1, JNK1α1 (Homo sapiens, UniProt P45983).
T1 construct: catalytic domain containing amino acids 1-364 and N-terminal hexahistidine tag; hexahistidine (His6) (N); made in house; host or cells: E. coli BL21 (DE3)
Description: Coupled spectrophotometric (PK/LDH) JNK1α1 assay: % inhibition and Ki determination. Type of assay: biochemical. The settings on record: read-out: % Inhibition JNK-1. The method, boiled down:
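Initial rates were taken from the absorbance decrease at 340 nm at 30° C. Ki was fitted with a tight-binding model over 11 concentrations (top 100 μM); single-point inhibition was tested at 1 or 10 μM.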

The term inhibition denotes the percentage by which the read-out fell short of the control.

T1 sequence (P45983 1-364): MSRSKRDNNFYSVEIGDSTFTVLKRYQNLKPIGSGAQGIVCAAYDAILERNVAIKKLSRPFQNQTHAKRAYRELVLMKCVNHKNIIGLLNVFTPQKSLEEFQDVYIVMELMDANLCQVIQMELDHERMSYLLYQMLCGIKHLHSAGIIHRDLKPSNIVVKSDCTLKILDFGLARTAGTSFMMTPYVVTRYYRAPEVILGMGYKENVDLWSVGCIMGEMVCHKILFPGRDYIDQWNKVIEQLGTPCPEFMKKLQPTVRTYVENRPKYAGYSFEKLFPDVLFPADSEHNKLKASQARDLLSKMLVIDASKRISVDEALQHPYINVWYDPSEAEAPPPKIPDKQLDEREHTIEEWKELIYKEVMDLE

Regarding `O=C(NCc1ccc[nH]c1=O)c1cccc2cnc(N[C@H]3CC[C@H](O)CC3)nc12` [Example 477, 2-[(trans-4-hydroxycyclohexyl)amino]-N-[(2-oxo-1,2-dihydropyridin-3-yl)methyl]quinazoline-8-carboxamide], the inhibition at 1 µM was determined as 14%. On to `Cc1nnc(CCNC(=O)c2cccc3cnc(N[C@H]4CC[C@H](O)CC4)nc23)[nH]1` [Example 478, 2-[(trans-4-hydroxycyclohexyl)amino]-N-[2-(5-methyl-4H-1,2,4-triazol-3-yl)ethyl]quinazoline-8-carboxamide], for which the inhibition at 1 µM was 12%. On the same count and under the same terms, for `Cc1c(C(C)NC(=O)c2cccc3cnc(N[C@H]4CC[C@H](O)CC4)nc23)cnn1C` (stereo partly drawn) [Example 479, N-[1-(1,5-dimethyl-1H-pyrazol-4-yl)ethyl]-2-[(trans-4-hydroxycyclohexyl)amino]quinazoline-8-carboxamide] the value was 13%; for `O=C(NCCc1nc2ccccc2[nH]1)c1cccc2cnc(N[C@H]3CC[C@H](O)CC3)nc12` [Example 480, N-[2-(1H-benzimidazol-2-yl)ethyl]-2-[(trans-4-hydroxycyclohexyl)amino]quinazoline-8-carboxamide], 11%. On the same count and under the same terms, under `Cc1cccc(CNC(=O)c2cccc3cnc(N[C@H]4CC[C@H](O)CC4)nc23)n1` [Example 481, 2-[(trans-4-hydroxycyclohexyl)amino]-N-[(6-methylpyridin-2-yl)methyl]quinazoline-carboxamide] stands 14%. Regarding `CC(Cn1cccn1)NC(=O)c1cccc2cnc(N[C@H]3CC[C@H](O)CC3)nc12` (stereo partly drawn) [Example 482, 2-[(trans-4-hydroxycyclohexyl)amino]-N-[1-methyl-2-(1H-pyrazol-1-yl)ethyl]quinazoline-8-carboxamide], the inhibition at 1 µM is 13%. `Cc1cc(C)n(CC(C)NC(=O)c2cccc3cnc(N[C@H]4CC[C@H](O)CC4)nc23)n1` (stereo partly drawn) [Example 483, N-[2-(3,5-dimethyl-1H-pyrazol-1-yl)-1-methylethyl]-2-[(trans-4-hydroxycyclohexyl)amino]quinazoline-8-carboxamide]: the inhibition at 10 µM was found to be 71%. Same read-out and setting: under `CCc1cc(CNC(=O)c2cccc3cnc(N[C@H]4CC[C@H](O)CC4)nc23)on1` [Example 484, N-[(3-ethylisoxazol-5-yl)methyl]-2-[(trans-4-hydroxycyclohexyl)amino]quinazoline-8-carboxamide] stands 57%; under `Cc1nccn1CCNC(=O)c1cccc2cnc(N[C@H]3CC[C@H](O)CC3)nc12` [Example 485, 2-[(trans-4-hydroxycyclohexyl)amino]-N-[2-(2-methyl-1H-imidazol-1-yl)ethyl]quinazoline-8-carboxamide], 72%.

On to `O=C(NCCN1CCCCC1=O)c1cccc2cnc(N[C@H]3CC[C@H](O)CC3)nc12` [Example 486, 2-[(trans-4-hydroxycyclohexyl)amino]-N-[2-(2-oxopiperidin-1-yl)ethyl]quinazoline-8-carboxamide], for which the inhibition at 10 µM came to 50%. The same measure, in the same setting: under `Cc1ccc(C(C)NC(=O)c2cccc3cnc(N[C@H]4CC[C@H](O)CC4)nc23)cn1` (stereo partly drawn) [Example 487, 2-[(trans-4-hydroxycyclohexyl)amino]-N-[1-(6-methylpyridin-3-yl)ethyl]quinazoline-8-carboxamide] stands 51%. Regarding `O=C(NC1CCCOC1)c1cccc2cnc(N[C@H]3CC[C@H](O)CC3)nc12` (stereo partly drawn) [Example 488, 2-[(trans-4-hydroxycyclohexyl)amino]-N-(tetrahydro-2H-pyran-3-yl)quinazoline-8-carboxamide], the inhibition at 1 µM is 40%.

Turning to `CCn1cc(CNC(=O)c2cccc3cnc(N[C@H]4CC[C@H](O)CC4)nc23)cn1` [Example 489, N-[(1-ethyl-1H-pyrazol-4-yl)methyl]-2-[(trans-4-hydroxycyclohexyl)amino]quinazoline-8-carboxamide], the inhibition at 1 µM was determined as 16%. With `O=C(NCc1nnc(C2CC2)[nH]1)c1cccc2cnc(N[C@H]3CC[C@H](O)CC3)nc12` [Example 490, N-[(5-cyclopropyl-4H-1,2,4-triazol-3-yl)methyl]-2-[(trans-4-hydroxycyclohexyl)amino]quinazoline-8-carboxamide], the inhibition at 10 µM stood at 40%. Take `O=C(NCCn1ccnc1)c1cccc2cnc(N[C@H]3CC[C@H](O)CC3)nc12` [Example 491, 2-[(trans-4-hydroxycycbohexyl)amino]-N-[2-(1H-imidazol-1-yl)ethyl]quinazoline-8-carboxamide]: the inhibition at 1 µM stood at 13%. In the case of `CC(NC(=O)c1cccc2cnc(N[C@H]3CC[C@H](O)CC3)nc12)c1ccncn1` (stereo partly drawn) [Example 492, 2-[(trans-4-hydroxycyclohexyl)amino]-N-(1-pyrimidin-4-ylethyl)quinazoline-8-carboxamide], the inhibition at 1 µM turned out to be 12%. The same measure, in the same setting: under `O=C(NCCN1CCCC1=O)c1cccc2cnc(N[C@H]3CC[C@H](O)CC3)nc12` [Example 493, 2-[(trans-4-hydroxycyclohexyl)amino]-N-(2-(2-oxopyrrolidin-1-yl)ethyl]quinazoline-8-carboxamide] stands 11%; under `O=C(NCCc1cn2ccccc2n1)c1cccc2cnc(N[C@H]3CC[C@H](O)CC3)nc12` [Example 494, 2-[(trans-4-hydroxycyclohexyl)amino]-N-(2-imidazol[1,2-a]pyridin-2-ylethyl)quinazoline-8-carboxamide], 16%. In the case of `Cc1cccnc1CC(C)NC(=O)c1cccc2cnc(N[C@H]3CC[C@H](O)CC3)nc12` (stereo partly drawn) [Example 495, 2-[(trans-4-hydroxycyclohexyl)amino]-N-(1-methyl-2-(3-methylpyridin-2-yl)ethyl]quinazoline-8-carboxamide], the inhibition at 10 µM was 76%.

Consider `CCn1nc(C)c(CNC(=O)c2cccc3cnc(N[C@H]4CC[C@H](O)CC4)nc23)c1C` [Example 496, N-[(1-ethyl-3,5-dimethyl-1H-pyrazol-4-yl)methyl]-2-[(trans-4-hydroxycyclohexyl)amino]quinazoline-8-carboxamide], for which the inhibition at 1 µM turned out to be 41%. Regarding `O=C(NCc1nncn1C1CCCCC1)c1cccc2cnc(N[C@H]3CC[C@H](O)CC3)nc12` [Example 497, N-[(4-cyclohexyl-4H-1,2,4-triazol-3-yl)methyl]-2-[(trans-4-hydroxycyclohexyl)amino]quinazoline-8-carboxamide], the inhibition at 1 µM stood at 13%. As for `Cc1ccn(CCNC(=O)c2cccc3cnc(N[C@H]4CC[C@H](O)CC4)nc23)n1` [Example 498, 2-[(trans-4-hydroxycyclohexyl)amino]-N-[2-(3-methyl-1H-pyrazol-1-yl)ethyl]quinazoline-8-carboxamide], the inhibition at 1 µM stood at 11%.

Take `O=C(NCCc1cn2cccnc2n1)c1cccc2cnc(N[C@H]3CC[C@H](O)CC3)nc12` [Example 499, 2-[(trans-4-hydroxycyclohexyl)amino]-N-(2-imidazo[1,2-a]pyrimidin-2-ylethyl)quinazoline-8-carboxamide]: the inhibition at 1 µM came out at 8%.

Turning to `CC(C)c1noc(CNC(=O)c2cccc3cnc(N[C@H]4CC[C@H](O)CC4)nc23)n1` [Example 500, 2-[(trans-4-hydroxycyclohexyl)amino]-N-[(3-isopropyl-1,2,4-oxadiazol-5-yl)methyl]quinazoline-8-carboxamide], the inhibition at 10 µM amounted to 38%.
